Results as given in patent publication US20050256132A1, “Use of ER selective NF-kB inhibitors for the treatment of sepsis” (priority 2003, published 2005).
Like-named read-outs stand apart in the source and are kept apart here.

System: ER/IL-6
Assay: Endothelial Cell ER/IL-6 Assay, IL-6 promoter luciferase (Table 2)
Assay type: cell-based, human
Conditions: ERα infected HAECT-1 cells, IL-1β; for IC50: read-out: IL6 luc IC50; for Emax: read-out: IL6 luc % Efficacy
Protocol: T-175 flasks of 100% confluent HAECT-1 cells (immortalized human aortic endothelial cells) were washed with 8 ml of HBSS (HEPES buffered saline solution) and infected for fours hours with 6 ml of a 1:10 dilution of Ad5-wt-hERα virus (an adenovirus transfection vector that mediates CMV promoter driven expression of human ERα) in phenol red free Endothelial Cell Basal medium (Clonetics, San Diego, Calif., Catalog # CC-3129) containing 0.25% bovine serum albumin (EDM-BSA). After four hours, cells were washed with EDM-BSA and incubated overnight in the same medium. Following overnight incubation, cells were washed with EDM-BSA and infected for 2 hours with 6 ml of a 1:10 dilution of Ad5-3x(NFκB).Luc virus (Adenovirus luciferase expression vector driven by three repeats of the MHC NFκb sites 5′ to the thymidine kinase promoter) in EDM-BSA. After two hours, cells were washed and incubated at 34° C. for one hour. Cells were then washed, trypsinized, counted, and resuspended in 95% FBS/5% dimethylsulfoxide at a concentration of […], frozen as 1 or 5 ml aliquots in cryo-vials and stored at −150° C. Control (no ER infection) cells were processed as above without Ad5-wt-hERα virus infection.
ERα infected HAECT-1 cells or control cells were thawed, diluted 42× in warm EBM-BSA, plated into 96-well plates at 0.1 ml/well and incubated for 4 hours at 34° C. Test compounds were added to the cells at 2× stocks in EBM-BSA containing 2 ng/ml IL-1β Ad6-IL-6(1250 bp).Luc virus and plates were returned to the incubator (34° C.). After […], cells were lysed with 50 μl of Promega Cell Culture Lysis reagenet for about 5 minutes at room temperature on a shaker. After lysing, 15 μl of lysate is transferred to luminometer plates for luciferase determination. Luciferase activity is evaluated using a Perkin Elmer Victor2 1420 multilabel counter. Creatine kinase was determined from the rate of increase in A340 following addition of 100 μl of CK assay reagent (Sigma catalog no. 47-10) to the remainder of the cell lysate.
For IC50 and EC50 calculations, mean IL-6, luciferase or CK values versus log10 of the compound concentration were fitted to a four parameter logistic equation. The IC50/EC50 value, ‘Hill slope,’ upper and lower limits of the curve were iteratively estimated.

| Structure (SMILES) | IC50 (Homo sapiens, HAECT1) [µM] | Emax (Homo sapiens, HAECT1) [%] | IL6 luc % Efficacy [%] | IC50 [µM] |
| --- | --- | --- | --- | --- |
| COC(=O)[C@@](C#N)(CCN1CCOCC1)[C@H](c1ccccc1OC)c1cccc2ccccc12 (relative stereo) [Example 147, Methyl (2S*)-2-cyano-2-[(S*)-(2-methoxyphenyl)(1-naphthyl)methyl]-4-morpholin-4-ylbutanoate] | 0.012 | – | – | – |
| CCN(CC)CC[C@](C#N)(C(=O)OC)[C@H](c1ccccc1OC)c1cccc2ccccc12 (relative stereo) [Example 148, Methyl (2S*)-2-cyano-4-(diethylamino)-2-[(S*)-(2-methoxyphenyl)(1-naphthyl)methyl]butanoate] | 0.257 | – | – | – |
| COc1ccccc1[C@H](c1cccc2ccccc12)[C@@](C)(C#N)C(=O)N1CC=C(c2ccc(F)cc2)CC1 [Example 137, (2S)-3-[4-(4-fluorophenyl)-3,6-dihydropyridin-1(2H)-yl]-2-[(S)-(2-methoxyphenyl)(1-naphthyl)methyl]-2-methyl-3-oxopropanenitrile] | 0.033 | 163 | – | – |
| COc1ccccc1[C@H](c1cccc2ccccc12)[C@@](C)(C#N)C(=O)N1CCC(O)(c2cccc(C(F)(F)F)c2)CC1 [Example 140, (2S)-3-{4-hydroxy-4-[3-(trifluoromethyl)phenyl]piperidin-1-yl}-2-[(S)-(2-methoxyphenyl)(1-naphthyl)methyl]-2-methyl-3-oxopropanenitrile] | 0.324 | 125 | – | – |
| COCCOC[C@@](C#N)(C(=O)OC)[C@@H](c1ccccc1OC)c1cccc2ccccc12 [Example 159, Methyl (2R,3R)-2-cyano-2-[(2-methoxyethoxy)methyl]-3-(2-methoxyphenyl)-3-(1-naphthyl)propanoate] | 0.273 | 95 | – | – |
| COc1ccccc1C(c1cnc2ccccc2c1)C(C)(C#N)C(=O)N1CCC(c2cccc(C(F)(F)F)c2)CC1 (centres unmarked) [Example 164, 3-(2-Methoxyphenyl)-2-methyl-3-quinolin-3-yl-2-({4-[3-(trifluoromethyl)phenyl]piperidin-1-yl}carbonyl)propanenitrile] | 0.032 | 48 | – | – |
| COCCOC[C@@](C#N)(C(=O)N1CCC(c2cccc(C(F)(F)F)c2)CC1)[C@@H](c1ccccc1OC)c1cccc2ccccc12 [Example 168, (RR,SS)-2-[(2-Methoxyethoxy)methyl]-3-(2-methoxyphenyl)-3-(1-naphthyl)-2-({4-[3-(trifluoromethyl)phenyl]piperidin-1-yl}carbonyl)propanenitrile] | – | – | 68 | 0.037 |
| COCCOC[C@@](C#N)(C(=O)NCC(C)(C)C)[C@@H](c1ccccc1OC)c1cccc2ccccc12 [Example 170, (RR,SS)-2-Cyano-N-(2,2-dimethylpropyl)-2-[(2-methoxyethoxy)methyl]-3-(2-methoxyphenyl)-3-(1-naphthyl)propanamide] | – | – | 89 | 0.577 |
| COCCOC[C@@](C#N)(C(=O)N1CCN(c2cnccn2)CC1)[C@@H](c1ccccc1OC)c1cccc2ccccc12 [Example 171, (RR,SS)-2-[(2-methoxyethoxy)methyl]-3-(2-methoxyphenyl)-3-(1-naphthyl)-2-[(4-pyrazin-2-ylpiperazin-1-yl)carbonyl]propanenitrile] | – | – | 54 | 0.337 |
| COc1ccccc1[C@@H](c1cccc2ccccc12)[C@@](C#N)(Cc1cccnc1)C(=O)NCC(C)(C)C [Example 176, (RR,SS)-2-cyano-N-(2,2-dimethylpropyl)-3-(2-methoxyphenyl)-3-(1-naphthyl)-2-(pyridin-3-ylmethyl)propanamide] | – | – | 71 | 0.413 |
| COc1ccccc1[C@@H](c1cccc2ccccc12)[C@@](C#N)(Cc1cccnc1)C(=O)OC(C)(C)C [Example 179, tert-Butyl (RR,SS)-2-cyano-3-(2-methoxyphenyl)-3-(1-naphthyl)-2-(pyridin-3-ylmethyl)propanoate] | – | – | 128 | 0.151 |
